Reference: patent US5409938A, “Antimalarial korupensamines and pharmaceutical compositions and medical uses thereof” (The United States of America as represented by the …, priority 1994, dated 1995)
Converted amounts (≈) assume the structure as drawn.

How the values were obtained:
[1] = Bringmann, et al., DE 41 17 080; cited from earlier work
[2] = Sharma, et al., 1975; cited from earlier work
[3] = Ruangrungsi, et al., 1985; cited from earlier work
Spodoptera littoralis = conditions: larvae of Spodoptera littoralis; Grimm 1992; Bringmann 1992; cited from earlier work
Plasmodium falciparum = test: in vitro antimalarial activity, 3H-hypoxanthine incorporation, P. falciparum (strain NF 54/64, clone A1A9) in human erythrocytes; type: cell-based; conditions: averages of 6 repeat tests
Protocol: This example illustrates the antimalarial activity of the korupensamines of the present invention. […] Continuous in vitro cultures of asexual erythrocytic stages of P. falciparum (strain NF 54/64, clone A1A9) were maintained following essentially the method of Trager and Jensen (Science, 193, 673-675, 1976) at 37° C. under an atmosphere of 5% CO2, 5% O2, and 90% N2. The host cells were human erythrocytes (A or O Rh+). The culture medium was RPMI 1640 (Gibco), containing HEPES (BDH; 4.57 gL^-1) glucose (Sigma; 1.54 gL^-1), 5% NaHCO3 (Merck; 34.78 mlL^-1),and gentamycin (Merck; 8.70 mlL^-1) supplemented with 10% human plasma (A Rh+). Parasites were subinoculated every 3-4 days with initial conditions of 1% parasitemia and 1% hematocrit.
In vitro testing with P. falciparum was as follows. Each compound was dissolved in DMSO at a concentration of 20 mg ml^-1. These solutions were further diluted with physiological saline to obtain a stock solution of 500 μg ml^-1. […]
The test protocol was performed in vitro, based upon the method of Desjardins, et al. (Antimicrobial Agents Chemother., 16, 710-718, 1979). […] The filter papers were dried for 2 h at 52° C. and their radioactivity was measured by liquid scintillation counting in Optiscint HiSafe (LKB Pharmacia).
The mean results, obtained as counts per min (cpm), were expressed as percentages of incorporation or growth inhibition. […]

Plasmodium berghei = test: in vitro antimalarial activity, 3H-hypoxanthine incorporation, P. berghei (Anka strain); type: cell-based; conditions: averages of 6 repeat tests
P. berghei (Anka strain) = test: in vivo antimalarial activity in P. berghei-infected OF1 mice, parasitemia from blood smears after 4 days
Protocol: Outbred, female, six-week-old OF1 mice (six mice per group treated and nontreated [control]) were inoculated intraperitoneally on day 0 with 10^6 P. berghei (Anka strain) blood forms. Two hours later, they were administered orally 50 mg/kg of korupensamine A. A second, third, and fourth treatment (50 mg/kg each) was given after 24, 48, and 72 h respectively (days 1, 2, and 3). […] The parasitemia (%) in the control (not drug treated) group was 2.45 (range 2.21-2.69; N=6) compared to 0.69 (range 0.48-0.91; N=6) for the treated group.

COc1cc(C)cc2ccc(-c3ccc4c(c3O)[C@@H](C)N[C@H](C)C4)c(O)c12 [Dioncophylline B]
activity as fungicides [1]: active as fungicides

COc1cc2c(c(OC)c1-c1c(C)cc3cccc(OC)c3c1O)C(C)=N[C@@H](C)C2 [ancistrocladidine]
spasmolytic activity [2]: pronounced spasmolytic activity

COc1cc2c(c(OC)c1-c1c(C)cc3cccc(OC)c3c1O)[C@@H](C)N(C)[C@@H](C)C2 [ancistrotectorine]
antitumor activity [3]: antitumor activity

COc1cccc2c(-c3ccc4c(c3O)C(C)NC(C)C4)c(C)cc(OC)c12 (centres unmarked) [dioncophylline A]
activity as fungicides [1]: active as fungicides | antifeedant effect (Spodoptera littoralis): antifeedant effect against the larvae of Spodoptera littoralis

COc1cc(C)cc2c(-c3c(O)cc(O)c4c3C[C@@H](C)N[C@@H]4C)ccc(O)c12 [korupensamine A]
IC50 (Plasmodium falciparum; Plasmodium falciparum, Erythrocyte, NP54/64, clone A1A9, read-out: IC50 P. faciparum): 0.307 µg/mL (≈ 0.809 µM) | IC50 (Plasmodium berghei; Plasmodium berghei): 0.555 µg/mL (≈ 1.46 µM) | parasitemia (%) in the treated group (P. berghei (Anka strain); 50 mg/kg orally x4 (2 h after inoculation, then 24, 48, 72 h), after 4 days, N=6, control 2.45 (range 2.21-2.69; N=6)): 0.69 (range 0.48-0.91; N=6) % | inhibition of the development of P. berghei erythrocytic forms (P. berghei (Anka strain); 50 mg/kg orally x4, blood smears after 4 days): marked inhibition of the development of P. berghei erythrocytic forms

COc1cc(C)cc2c(-c3c(O)cc(O)c4c3C[C@@H](C)N[C@@H]4C)ccc(O)c12 [korupensamine B]
IC50 P. faciparum (Plasmodium falciparum; NP54/64, clone A1A9): 0.175 µg/mL (≈ 0.461 µM) | IC50 P. berghei (Plasmodium berghei): 0.490 µg/mL (≈ 1.29 µM)
